Assay results reported in paper PMC11494293, “Biochemical and structural insights into a 5’ to 3’ RNA ligase reveal a potential role in tRNA ligation” (Proceedings of the National Academy of Sciences of the …, 2024).

Target: T1, YspRLIG1 (Yasminevirus RLIG1) (Yasminevirus sp. GU-2018, UniProt A0A5K0UB63)
T1 construct: gene YASMINEVIRUS_1364; minimal RNA ligase (NTase) fold; active-site Lys73
T1 sequence (A0A5K0UB63 1-276): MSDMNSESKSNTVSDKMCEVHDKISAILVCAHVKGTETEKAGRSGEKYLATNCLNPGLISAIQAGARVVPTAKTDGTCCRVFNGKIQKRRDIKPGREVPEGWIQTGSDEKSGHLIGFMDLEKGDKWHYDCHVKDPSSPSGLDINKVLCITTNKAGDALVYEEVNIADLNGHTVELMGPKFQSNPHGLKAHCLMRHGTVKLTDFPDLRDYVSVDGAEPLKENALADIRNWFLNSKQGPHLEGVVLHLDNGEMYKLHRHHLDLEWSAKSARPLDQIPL
Assay: X-ray crystal structure
Type: binding
Conditions: crystallised in the presence of ATP, active site, either AMP or ADP modelled

Row | SMILES | X-ray crystal structure (WT protein adenylated) | X-ray crystal structure
1 | Nc1ncnc2c1ncn2[C@@H]1O[C@H](COP(=O)(O)O)[C@@H](O)[C@H]1O [AMP] | In the WT structure, either AMP or ADP was modeled in the active site | –
2 | Nc1ncnc2c1ncn2[C@@H]1O[C@H](COP(=O)(O)OP(=O)(O)O)[C@@H](O)[C@H]1O [ADP] | – | In the ADP-bound YspRLIG1^WT structure, the O5-Pα bond is rotated
